Measured values reported in ChEMBL document CHEMBL3880428, “Sulfonamide derivative having PGD2 receptor antagonistic activity” (2012).

Tests used:
Type in all cases: cell-based
HEK293 [1] = test: Selectivity ratio of IC50 for PGD2 receptor in human platelets to IC50 for human EP1 receptor expressed in HEK293 cells by cAMP accumulation assay
HEK293 [2] = test: Selectivity ratio of IC50 for PGD2 receptor in human platelets to IC50 for human EP2 receptor expressed in HEK293 cells by cAMP accumulation assay
HEK293 [3] = test: Selectivity ratio of IC50 for PGD2 receptor in human platelets to IC50 for human EP3 receptor expressed in HEK293 cells by cAMP accumulation assay
HEK293 [4] = test: Selectivity ratio of IC50 for PGD2 receptor in human platelets to IC50 for human EP4 receptor expressed in HEK293 cells by cAMP accumulation assay
HEK293 [5] = test: Selectivity ratio of IC50 for PGD2 receptor in human platelets to IC50 for human FP receptor expressed in HEK293 cells by cAMP accumulation assay
HEK293 [6] = test: Selectivity ratio of IC50 for PGD2 receptor in human platelets to IC50 for human TP receptor expressed in HEK293 cells by cAMP accumulation assay
HEK293 [7] = test: Selectivity ratio of IC50 for PGD2 receptor in human platelets to IC50 for human IP receptor expressed in HEK293 cells by cAMP accumulation assay

Measured: Ratio IC50

CC(C)Oc1ccc(S(=O)(=O)N2CCN(c3ccc(-c4nnco4)c(OCC(=O)O)c3)CC2)cc1
> 20: all assays above

CC(C)Oc1ccc(S(=O)(=O)N2CCC(Oc3ccccc3CCC(=O)O)CC2)cc1
> 20: all assays above

CC(C)Oc1ccc(S(=O)(=O)N2CCN(c3ccc4ncn(CC(=O)O)c4c3)CC2)cc1
> 20: all assays above

CC(C)Oc1ccc(S(=O)(=O)N2CCN(c3ccc(C(=O)Nc4ccccc4)c(OCC(=O)O)c3)CC2)cc1
> 20: all assays above

CC(C)Oc1ccc(S(=O)(=O)N2CCN(c3ccc(-n4cccn4)c(OCC(=O)O)c3)CC2)cc1
> 20: all assays above

CC(C)Oc1ccc(S(=O)(=O)N2CCN(c3ccc(C(=O)Nc4nncs4)c(OCC(=O)O)c3)CC2)cc1
> 20: all assays above

CC(C)Oc1ccc(S(=O)(=O)N2CCN(c3ccc(-c4nccs4)c(OCC(=O)O)c3)CC2)cc1
> 20: all assays above

CC(C)Oc1ccc(S(=O)(=O)N2CCN(c3ccc([N+](=O)[O-])c(NCC(=O)O)c3)CC2)cc1
> 20: all assays above

CC(C)Oc1ccc(S(=O)(=O)N2CCN(c3ccc(Br)c(OCC(=O)O)c3)CC2)cc1
> 20: all assays above

Cc1cc(OCC(=O)O)cc(N2CCN(S(=O)(=O)c3ccc(OC(C)C)cc3)CC2)c1
> 20: all assays above

CC[C@@H](C)Oc1ccc(S(=O)(=O)N2CCN(c3ccc(Cl)c(OCC(=O)O)c3)CC2)cc1
> 20: all assays above

CC(C)Oc1ccc(S(=O)(=O)N2CCN(c3ccc(-c4nncs4)c(OCC(=O)O)c3)CC2)cc1
> 20: all assays above

CC(C)Oc1ccc(S(=O)(=O)N2CCN(c3ccc(NC(=O)c4cccnc4)c(OCC(=O)O)c3)CC2)cc1
> 20: all assays above

CC(C)Oc1ccc(S(=O)(=O)N2CCN(c3ccc(C(=O)NCc4ccco4)c(OCC(=O)O)c3)CC2)cc1
> 20: all assays above

CC(C)Oc1ccc(S(=O)(=O)N2CCN(c3cc(OCC(=O)O)cc(-c4ccccc4)c3)CC2)cc1
> 20: all assays above

Cc1ccc(N2CCN(S(=O)(=O)c3ccc(OC(C)C)cc3)CC2)cc1OCC(=O)O
> 20: all assays above

CC(C)Oc1ccc(S(=O)(=O)N2CCC(c3ccc(Cl)c(OCC(=O)O)c3)CC2)cc1
> 20: all assays above

CC(C)Oc1ccc(S(=O)(=O)N2CCN(c3ccc(-c4ccccc4)c(OCC(=O)O)c3)CC2)cc1
> 20: all assays above

CC(C)Oc1ccc(S(=O)(=O)N2CCN(c3ccc(Cl)c(OCC(=O)O)c3)C(C)C2)cc1 (stereo not drawn)
> 20: all assays above

CC(C)Oc1ccc(S(=O)(=O)N2CCN(c3ccc(C(=O)NCc4cccs4)c(OCC(=O)O)c3)CC2)cc1
> 20: all assays above

Cc1nnc(-c2ccc(N3CCN(S(=O)(=O)c4ccc(OC(C)C)cc4)CC3)cc2OCC(=O)O)o1
> 20: all assays above

CC(C)Oc1ccc(S(=O)(=O)N2CCN(c3ccc(Cl)c(OCC(=O)O)c3)CC2C)cc1 (stereo not drawn)
> 20: all assays above

CC(C)Oc1ccc(S(=O)(=O)N2CC=C(c3ccc(Cl)c(OCC(=O)O)c3)CC2)cc1
> 20: all assays above

CC(C)Oc1ccc(S(=O)(=O)N2CCN(c3ccc(Cl)c(/C=C/C(=O)O)c3)CC2)cc1
> 20: all assays above

CC(C)Oc1ccc(S(=O)(=O)N2CCN(c3ccc(-c4ccco4)c(OCC(=O)O)c3)CC2)cc1
> 20: all assays above

CC(C)Sc1ccc(S(=O)(=O)N2CCN(c3ccc(Cl)c(OCC(=O)O)c3)CC2)cc1
> 20: all assays above

CC(C)Oc1ccc(S(=O)(=O)N2CCN(c3cccc(OCC(=O)O)n3)CC2)cc1
> 20: all assays above

CC(C)Oc1ccc(S(=O)(=O)N2CCN(c3ccc(OCc4ccoc4)c(OCC(=O)O)c3)CC2)cc1
> 20: all assays above

CC(C)Oc1ccc(S(=O)(=O)N2CCN(c3cc(F)c(F)c(OCC(=O)O)c3)CC2)cn1
> 20: all assays above

Cc1nnc(-c2ccc(N3CCN(S(=O)(=O)c4ccc(OC(C)C)cc4)CC3)cc2OCC(=O)O)s1
> 20: all assays above

COC(=O)Nc1ccc(N2CCN(S(=O)(=O)c3ccc(OC(C)C)cc3)CC2)cc1OCC(=O)O
> 20: all assays above

CC(=O)c1ccc(N2CCN(S(=O)(=O)c3ccc(OC(C)C)cc3)CC2)cc1OCC(=O)O
> 20: all assays above

CC(C)Oc1ccc(S(=O)(=O)N2CCN(c3ccc(C(=O)NCC4CC4)c(OCC(=O)O)c3)CC2)cc1
> 20: all assays above

CC(C)Oc1ccc(S(=O)(=O)N2CCN(c3cc(Br)cc(OCC(=O)O)c3)CC2)cc1
> 20: all assays above
